MIC and CC50 data for 11 compounds are collected here from ChEMBL document CHEMBL4513149, “CO-ADD screening of MMV (CH) - MMV compounds” (2021).

≈ marks a conversion by molar mass, not a printed value. Bounds are passed on as bounds.

One test relates to Escherichia coli. The test can be described thus: microbe, parasite or virus in culture. The following applies: ATCC 25922, 18 h, ASSAY_TEST Inhibition of Bacterial Growth, detection method Absorption (OD600), MEDIA CAMHB, plate type 384well, NBS, CORNING #3640.
The subject of the next test is Acinetobacter baumannii. The experiment in a line: microbe, parasite or virus in culture. The following applies: ATCC 19606, 18 h, ASSAY_TEST Inhibition of Bacterial Growth, detection method Absorption (OD600), MEDIA CAMHB, plate type 384well, NBS, CORNING #3640.
For the next test, the system named is Pseudomonas aeruginosa. The test can be described thus: microbe, parasite or virus in culture. Particulars: ATCC 27853, 18 h, ASSAY_TEST Inhibition of Bacterial Growth, detection method Absorption (OD600), MEDIA CAMHB, plate type 384well, NBS, CORNING #3640.
Another test has as its system HEK293. The experiment in a line: cells. It counts as functional. The following applies: Homo sapiens, ATCC CRL1573, HEK293; ASSAY_TEST Inhibition of Cell Viability; detection method Resazurin; Fluorescence (ex560/em590); MEDIA DMEM with 10% FBS; plate type 384well; TC; CORNING #3712; time 18 hr. (Alamar Blue is a resazurin reagent that responds to reducing activity.)

In a further test the test system is Klebsiella pneumoniae. The test can be described thus: microbe, parasite or virus in culture. The following applies: ATCC 700603, 18 h, ASSAY_TEST Inhibition of Bacterial Growth, detection method Absorption (OD600), MEDIA CAMHB, plate type 384well, NBS, CORNING #3640.
A further test concerns Staphylococcus aureus. The test can be described thus: microbe, parasite or virus in culture. The following applies: ATCC 43300, 18 h, ASSAY_TEST Inhibition of Bacterial Growth, detection method Absorption (OD600), MEDIA CAMHB, plate type 384well, NBS, CORNING #3640.
The next test has as its system Candida albicans. The test can be described thus: microbe, parasite or virus in culture. Particulars: ATCC 90028, ASSAY_TEST Inhibition of Fungal Growth, detection method Absorption (OD530), plate type 384well, NBS, CORNING #3640.

Description for Acinetobacter baumannii: Antibacterial activity against Acinetobacter baumannii ATCC 19606 (CO-ADD:GN_034); MIC in CAMBH media using NBS plates, by OD600
Description for Candida albicans: Antifungal activity against Candida albicans ATCC 90028 (CO-ADD:FG_001); MIC in YNB media using NBS plates, by OD630
Description for Cryptococcus neoformans: Antifungal activity against Cryptococcus neoformans H99 ATCC 208821 (CO-ADD:FG_002); MIC in YNB media using NBS plates, by Resazurin OD(600-570)
Description for Escherichia coli: Antibacterial activity against Escherichia coli ATCC 25922 (CO-ADD:GN_001); MIC in CAMBH media using NBS plates, by OD(600)
Description for Klebsiella pneumoniae: Antibacterial activity against Klebsiella pneumoniae MDR ATCC 70063 (CO-ADD:GN_003); MIC in CAMBH media using NBS plates, by OD(600)
Description for Pseudomonas aeruginosa: Antibacterial activity against Pseudomonas aeruginosa ATCC 27853 (CO-ADD:GN_042); MIC in CAMBH media using NBS plates, by OD(600)
Description for Staphylococcus aureus: Antibacterial activity against Staphylococcus aureus MRSA ATCC 43300 (CO-ADD:GP_020); MIC in CAMBH media, using NBS plates, by OD(600)

What is called CC50 is the concentration giving 50% cytotoxicity. As to `O=C(Nc1nnc(-c2ccc(Cl)cc2)o1)c1cccc(C(F)(F)F)c1`, the MIC against Escherichia coli, against Acinetobacter baumannii, against Pseudomonas aeruginosa, in the test on Cryptococcus neoformans, against Klebsiella pneumoniae and in the test with Staphylococcus aureus was more than 10 µM throughout. For the same compound, the MIC in the test on Candida albicans was more than 10 µM. This compound also registered a half-maximal cytotoxic concentration (CC50) with HEK293 of more than 10 µM.

Turning to `Brc1cncc(-c2cc(NCCCn3ccnc3)nc(-c3ccccc3)n2)c1`, the MIC in the test with Escherichia coli, against Acinetobacter baumannii, with Pseudomonas aeruginosa, with Cryptococcus neoformans, against Klebsiella pneumoniae and with Staphylococcus aureus was more than 10 µM each time. Also, the MIC in the test on Candida albicans was more than 10 µM. In the test on HEK293, this compound displayed a CC50 of more than 10 µM.

Consider `CCc1c(C)nc(-n2nc(C)cc2NC(=O)c2ccccc2SC)[nH]c1=O`, for which the MIC against Escherichia coli, against Acinetobacter baumannii, in the test on Pseudomonas aeruginosa, against Cryptococcus neoformans, against Klebsiella pneumoniae and with Staphylococcus aureus was more than 10 µM throughout. Besides, in the test with Candida albicans, the MIC was more than 10 µM. The same compound registered a CC50 in the test on HEK293 of more than 10 µM.

For `O=C(Nc1nnc(-c2ccc(Cl)s2)o1)c1ccc(Cl)s1`, the MIC is more than 10 µM with Escherichia coli; more than 10 µM in the test on Acinetobacter baumannii; more than 10 µM against Pseudomonas aeruginosa; more than 10 µM against Cryptococcus neoformans; more than 10 µM with Klebsiella pneumoniae; 10 µM (≈ 3.46 µg/mL) against Staphylococcus aureus. The compound further showed an MIC with Candida albicans of more than 10 µM. In the test with HEK293, the CC50 was more than 10 µM.

As to `CCOC(=O)NC(=O)c1ccsc1NC(=O)c1nc2ccccc2s1`, the MIC against Escherichia coli, in the test with Acinetobacter baumannii, in the test with Pseudomonas aeruginosa, against Cryptococcus neoformans, in the test with Klebsiella pneumoniae and against Staphylococcus aureus was more than 10 µM throughout. The same compound showed an MIC with Candida albicans of more than 10 µM. The compound also showed a half-maximal cytotoxic concentration (CC50) in the test with HEK293 of more than 10 µM.

On to `NC(CC(=O)c1ccc(Cl)cc1Cl)C(Cl)(Cl)Cl` (stereo not drawn), for which the MIC with Escherichia coli, in the test with Acinetobacter baumannii, against Pseudomonas aeruginosa, against Cryptococcus neoformans, against Klebsiella pneumoniae and against Staphylococcus aureus was more than 10 µM throughout. The MIC against Candida albicans is more than 10 µM. Moreover, in the test on HEK293, the CC50 is more than 10 µM.

With `COc1cccc(-n2nnnc2S(=O)(=O)Cc2ccccc2)c1`, the MIC in the test on Escherichia coli, with Acinetobacter baumannii, against Pseudomonas aeruginosa, against Cryptococcus neoformans, against Klebsiella pneumoniae and against Staphylococcus aureus was more than 10 µM in each case. Moreover, the MIC in the test on Candida albicans was more than 10 µM. In addition, in the test on HEK293, the CC50 was more than 10 µM.

Consider `c1csc(-c2cnc3sc(NCC4CCOCC4)nn23)c1`, for which the MIC in the test with Escherichia coli, against Acinetobacter baumannii, in the test with Pseudomonas aeruginosa, with Cryptococcus neoformans, against Klebsiella pneumoniae and in the test with Staphylococcus aureus was more than 10 µM each time. The MIC in the test on Candida albicans is more than 10 µM. In the test on HEK293, the CC50 is more than 10 µM.

As for `O=C(Nc1ccccc1)c1ccc(-c2cc3ccncc3cc2OC2CCNCC2)s1`, the MIC against Escherichia coli, in the test with Acinetobacter baumannii, against Pseudomonas aeruginosa, in the test with Cryptococcus neoformans, with Klebsiella pneumoniae and in the test with Staphylococcus aureus was more than 10 µM throughout. Also, the MIC in the test with Candida albicans was more than 10 µM. Also, the CC50 with HEK293 is more than 10 µM.

On to `Cc1nc(-c2ccccn2)nc(N2CCC(Cc3ccccc3)C2)c1Cl` (stereo not drawn), for which the MIC in the test with Escherichia coli is more than 10 µM; against Acinetobacter baumannii, more than 10 µM; in the test on Pseudomonas aeruginosa, more than 10 µM; in the test with Cryptococcus neoformans it was not above 0.0781 µM; in the test on Klebsiella pneumoniae, more than 10 µM; against Staphylococcus aureus, more than 10 µM. In the test with Candida albicans, this compound yielded an MIC of 0.156 µM (≈ 0.057 µg/mL). This compound also came in with a CC50 with HEK293 of more than 10 µM.

Consider `COc1ccc(OC)c(NCc2ccc3nc(N)nc(N)c3c2Cl)c1`, for which the MIC in the test with Escherichia coli was 2.5 µM (≈ 0.9 µg/mL); against Acinetobacter baumannii, more than 10 µM; against Pseudomonas aeruginosa, 2.5 µM (≈ 0.9 µg/mL); with Cryptococcus neoformans it was more than 10 µM; with Klebsiella pneumoniae, 10 µM (≈ 3.6 µg/mL); with Staphylococcus aureus, 0.625 µM (≈ 0.225 µg/mL). Further, the MIC with Candida albicans was more than 10 µM. Moreover, the CC50 in the test on HEK293 was more than 10 µM.
